Measured values reported in article PMC5615155 (Toxicology Reports, 2017).

Assays:
[1] = 13-week dietary toxicity study; format: in vivo, CD [Crl:CD(SD)] rats
[2] = toxicokinetics in 13-week dietary study; format: in vivo, Sprague-Dawley rats; details: for bioavailability of S8069 in 13-week study: male and female, range
[3] = single-dose pharmacokinetics and oral bioavailability; format: in vivo, Sprague-Dawley rats; details: for AUClast / Cmax: S2218 in plasma
solubility / dissolution = format: physicochemical
[4] = 140 mg/kg bw/day females, p < 0.05
[5] = Day 7, 140 mg/kg bw diet, M + F
[6] = Day 91, 30 mg/kg bw diet, M + F
[7] = Day 91, 70 mg/kg bw diet, M + F
[8] = Day 91, 140 mg/kg bw diet, M + F
[9] = S8069 oral gavage, 7.83 mg/kg bw S2218 equiv., F
[10] = S8069 oral gavage, 7.83 mg/kg bw S2218 equiv., M
[11] = S8069 oral gavage, 78.3 mg/kg bw S2218 equiv., F
[12] = S8069 oral gavage, 78.3 mg/kg bw S2218 equiv., M

Cc1cc(C(=O)NC(C)(C)COc2cccc3c2C(N)=NS(=O)(=O)N3)cc(C)n1.O=S(=O)(O)O [S8069]
pituitary/brain weight decrease vs control ([1]; 140 mg/kg bw/day females, p < 0.01): 17.7%
kidney/brain weight decrease vs control [1, 4]: 8.1%
liver/brain weight decrease vs control [1, 4]: 9.8%
pituitary gland mean absolute weight decrease vs control [1, 4]: 15.1%
pituitary/body weight decrease vs control [1, 4]: 14.6%
brain weight increase relative to control ([1]; 140 mg/kg bw/day females, p > 0.05): 3.4%
Findings ([1]; 30, 70, 140 mg/kg bw/day food ad-mix): No test-article related findings
margin of safety (NOAEL 140 mg/kg bw/day vs PADI 47 μg/kg bw/day) ([1]; rat, in vivo): > 2975 fold
ACUM Ratio (dose-normalized AUC0-24h Day 91/Day 7) ([2]; 30 mg/kg bw, F): 1.35
ACUM Ratio (dose-normalized AUC0-24h Day 91/Day 7) ([2]; 30 mg/kg bw, M): 2.86
ACUM Ratio (dose-normalized AUC0-24h Day 91/Day 7) ([2]; 30 mg/kg bw, M + F): 1.88
ACUM Ratio (dose-normalized AUC0-24h Day 91/Day 7) ([2]; 70 mg/kg bw, F): 0.821
ACUM Ratio (dose-normalized AUC0-24h Day 91/Day 7) ([2]; 70 mg/kg bw, M): 1.07
ACUM Ratio (dose-normalized AUC0-24h Day 91/Day 7) ([2]; 70 mg/kg bw, M + F): 0.954
ACUM Ratio (dose-normalized AUC0-24h Day 91/Day 7) ([2]; 140 mg/kg bw, F): 0.768
ACUM Ratio (dose-normalized AUC0-24h Day 91/Day 7) ([2]; 140 mg/kg bw, M): 4.55
ACUM Ratio (dose-normalized AUC0-24h Day 91/Day 7) ([2]; 140 mg/kg bw, M + F): 2.30
F:M Ratio (AUC0-24h/Dose) ([2]; Day 7, 30 mg/kg bw): 1.75
AUC0-24h ([2]; Day 7, 30 mg/kg bw diet, F): 253 ng·h/mL
AUC0-24h/Dose ([2]; Day 7, 30 mg/kg bw diet, F): 9.10 ng·h/mL/mg/kg
Cmax ([2]; Day 7, 30 mg/kg bw diet, F): 20.1 ng/mL
Cmax/Dose ([2]; Day 7, 30 mg/kg bw diet, F): 0.723 ng/mL/mg/kg
Tmax ([2]; Day 7, 30 mg/kg bw diet, F): 3 h
AUC0-24h ([2]; Day 7, 30 mg/kg bw diet, M): 134 ng·h/mL
AUC0-24h/Dose ([2]; Day 7, 30 mg/kg bw diet, M): 5.19 ng·h/mL/mg/kg
Cmax ([2]; Day 7, 30 mg/kg bw diet, M): 14.0 ng/mL
Cmax/Dose ([2]; Day 7, 30 mg/kg bw diet, M): 0.543 ng/mL/mg/kg
Tmax ([2]; Day 7, 30 mg/kg bw diet, M): 1 h
AUC0-24h ([2]; Day 7, 30 mg/kg bw diet, M + F): 194 ng·h/mL
AUC0-24h/Dose ([2]; Day 7, 30 mg/kg bw diet, M + F): 7.24 ng·h/mL/mg/kg
Cmax ([2]; Day 7, 30 mg/kg bw diet, M + F): 11.1 ng/mL
Cmax/Dose ([2]; Day 7, 30 mg/kg bw diet, M + F): 0.414 ng/mL/mg/kg
Tmax ([2]; Day 7, 30 mg/kg bw diet, M + F): 3 h
F:M Ratio (AUC0-24h/Dose) ([2]; Day 7, 70 mg/kg bw): 0.914
AUC0-24h ([2]; Day 7, 70 mg/kg bw diet, F): 610 ng·h/mL
AUC0-24h/Dose ([2]; Day 7, 70 mg/kg bw diet, F): 9.33 ng·h/mL/mg/kg
Cmax ([2]; Day 7, 70 mg/kg bw diet, F): 44.4 ng/mL
Cmax/Dose ([2]; Day 7, 70 mg/kg bw diet, F): 0.679 ng/mL/mg/kg
Tmax ([2]; Day 7, 70 mg/kg bw diet, F): 0 h
AUC0-24h ([2]; Day 7, 70 mg/kg bw diet, M): 641 ng·h/mL
AUC0-24h/Dose ([2]; Day 7, 70 mg/kg bw diet, M): 10.2 ng·h/mL/mg/kg
Cmax ([2]; Day 7, 70 mg/kg bw diet, M): 32.8 ng/mL
Cmax/Dose ([2]; Day 7, 70 mg/kg bw diet, M): 0.522 ng/mL/mg/kg
Tmax ([2]; Day 7, 70 mg/kg bw diet, M): 6 h
AUC0-24h ([2]; Day 7, 70 mg/kg bw diet, M + F): 626 ng·h/mL
AUC0-24h/Dose ([2]; Day 7, 70 mg/kg bw diet, M + F): 9.77 ng·h/mL/mg/kg
Cmax ([2]; Day 7, 70 mg/kg bw diet, M + F): 34.3 ng/mL
Cmax/Dose ([2]; Day 7, 70 mg/kg bw diet, M + F): 0.535 ng/mL/mg/kg
Tmax ([2]; Day 7, 70 mg/kg bw diet, M + F): 12 h
F:M Ratio (AUC0-24h/Dose) ([2]; Day 7, 140 mg/kg bw): 1.48
AUC0-24h ([2]; Day 7, 140 mg/kg bw diet, F): 1640 ng·h/mL
AUC0-24h/Dose ([2]; Day 7, 140 mg/kg bw diet, F): 12.0 ng·h/mL/mg/kg
Cmax ([2]; Day 7, 140 mg/kg bw diet, F): 137 ng/mL
Cmax/Dose ([2]; Day 7, 140 mg/kg bw diet, F): 1.00 ng/mL/mg/kg
Tmax ([2]; Day 7, 140 mg/kg bw diet, F): 24 h
AUC0-24h ([2]; Day 7, 140 mg/kg bw diet, M): 1020 ng·h/mL
AUC0-24h/Dose ([2]; Day 7, 140 mg/kg bw diet, M): 8.16 ng·h/mL/mg/kg
Cmax ([2]; Day 7, 140 mg/kg bw diet, M): 57.0 ng/mL
Cmax/Dose ([2]; Day 7, 140 mg/kg bw diet, M): 0.456 ng/mL/mg/kg
Tmax ([2]; Day 7, 140 mg/kg bw diet, M): 6 h
AUC0-24h [2, 5]: 1330 ng·h/mL
AUC0-24h/Dose [2, 5]: 10.15 ng·h/mL/mg/kg
Cmax [2, 5]: 86.5 ng/mL
Cmax/Dose [2, 5]: 0.660 ng/mL/mg/kg
Tmax [2, 5]: 6 h
bioavailability of S8069 in 13-week study ([2]; Day 7, food ad-mix): 1.28–3.36%
F:M Ratio (AUC0-24h/Dose) ([2]; Day 91, 30 mg/kg bw): 0.828
AUC0-24h ([2]; Day 91, 30 mg/kg bw diet, F): 376 ng·h/mL
AUC0-24h/Dose ([2]; Day 91, 30 mg/kg bw diet, F): 12.3 ng·h/mL/mg/kg
Cmax ([2]; Day 91, 30 mg/kg bw diet, F): 58.8 ng/mL
Cmax/Dose ([2]; Day 91, 30 mg/kg bw diet, F): 1.93 ng/mL/mg/kg
Tmax ([2]; Day 91, 30 mg/kg bw diet, F): 6 h
AUC0-24h ([2]; Day 91, 30 mg/kg bw diet, M): 427 ng·h/mL
AUC0-24h/Dose ([2]; Day 91, 30 mg/kg bw diet, M): 14.9 ng·h/mL/mg/kg
Cmax ([2]; Day 91, 30 mg/kg bw diet, M): 35.8 ng/mL
Cmax/Dose ([2]; Day 91, 30 mg/kg bw diet, M): 1.25 ng/mL/mg/kg
Tmax ([2]; Day 91, 30 mg/kg bw diet, M): 6 h
AUC0-24h [2, 6]: 402 ng·h/mL
AUC0-24h/Dose [2, 6]: 13.6 ng·h/mL/mg/kg
Cmax [2, 6]: 47.3 ng/mL
Cmax/Dose [2, 6]: 1.60 ng/mL/mg/kg
Tmax [2, 6]: 6 h
F:M Ratio (AUC0-24h/Dose) ([2]; Day 91, 70 mg/kg bw): 0.703
AUC0-24h ([2]; Day 91, 70 mg/kg bw diet, F): 507 ng·h/mL
AUC0-24h/Dose ([2]; Day 91, 70 mg/kg bw diet, F): 7.67 ng·h/mL/mg/kg
Cmax ([2]; Day 91, 70 mg/kg bw diet, F): 27.8 ng/mL
Cmax/Dose ([2]; Day 91, 70 mg/kg bw diet, F): 0.421 ng/mL/mg/kg
Tmax ([2]; Day 91, 70 mg/kg bw diet, F): 0 h
AUC0-24h ([2]; Day 91, 70 mg/kg bw diet, M): 748 ng·h/mL
AUC0-24h/Dose ([2]; Day 91, 70 mg/kg bw diet, M): 10.9 ng·h/mL/mg/kg
Cmax ([2]; Day 91, 70 mg/kg bw diet, M): 60.4 ng/mL
Cmax/Dose ([2]; Day 91, 70 mg/kg bw diet, M): 0.880 ng/mL/mg/kg
Tmax ([2]; Day 91, 70 mg/kg bw diet, M): 3 h
AUC0-24h [2, 7]: 627 ng·h/mL
AUC0-24h/Dose [2, 7]: 9.32 ng·h/mL/mg/kg
Cmax [2, 7]: 40.0 ng/mL
Cmax/Dose [2, 7]: 0.594 ng/mL/mg/kg
Tmax [2, 7]: 3 h
F:M Ratio (AUC0-24h/Dose) ([2]; Day 91, 140 mg/kg bw): 0.248
AUC0-24h ([2]; Day 91, 140 mg/kg bw diet, F): 1120 ng·h/mL
AUC0-24h/Dose ([2]; Day 91, 140 mg/kg bw diet, F): 9.18 ng·h/mL/mg/kg
Cmax ([2]; Day 91, 140 mg/kg bw diet, F): 85.0 ng/mL
Cmax/Dose ([2]; Day 91, 140 mg/kg bw diet, F): 0.697 ng/mL/mg/kg
Tmax ([2]; Day 91, 140 mg/kg bw diet, F): 12 h
AUC0-24h ([2]; Day 91, 140 mg/kg bw diet, M): 4550 ng·h/mL
AUC0-24h/Dose ([2]; Day 91, 140 mg/kg bw diet, M): 37.0 ng·h/mL/mg/kg
Cmax ([2]; Day 91, 140 mg/kg bw diet, M): 358 ng/mL
Cmax/Dose ([2]; Day 91, 140 mg/kg bw diet, M): 2.91 ng/mL/mg/kg
Tmax ([2]; Day 91, 140 mg/kg bw diet, M): 12 h
AUC0-24h [2, 8]: 2840 ng·h/mL
AUC0-24h/Dose [2, 8]: 23.3 ng·h/mL/mg/kg
Cmax [2, 8]: 222 ng/mL
Cmax/Dose [2, 8]: 1.82 ng/mL/mg/kg
Tmax [2, 8]: 12 h
bioavailability of S8069 in 13-week study ([2]; Day 91, food ad-mix): 2.15–9.14%
%F [3, 9]: 0.77%
Tmax [3, 9]: 0.250 ± 0.0 h
t1/2 [3, 9]: 1.15 ± 0.353 h
AUClast [3, 9]: 26.4 ± 14.3 ng·h/mL
Cmax [3, 9]: 24.4 ± 10.1 ng/mL
%F [3, 10]: 0.60%
Tmax [3, 10]: 0.313 ± 0.125 h
t1/2 [3, 10]: 0.786 ± 0.110 h
AUClast [3, 10]: 23.6 ± 5.26 ng·h/mL
Cmax [3, 10]: 21.4 ± 1.54 ng/mL
%F [3, 11]: 0.29%
Tmax [3, 11]: 0.250 ± 0.0 h
t1/2 [3, 11]: 0.969 ± 0.315 h
AUClast [3, 11]: 99.1 ± 23.2 ng·h/mL
Cmax [3, 11]: 106 ± 39.7 ng/mL
%F [3, 12]: 0.14%
Tmax [3, 12]: 0.250 ± 0.0 h
t1/2 [3, 12]: 0.860 ± 0.340 h
AUClast [3, 12]: 55.6 ± 17.8 ng·h/mL
Cmax [3, 12]: 60.5 ± 16.9 ng/mL
%F ([3]; oral, both test articles, male and female rats, all doses): 0.14–0.77%
solubility in water (solubility / dissolution): very soluble in water
state in 1% methylcellulose dosing formulation (solubility / dissolution; S8069 at 10 mg/mL, S2218 at all dose levels): completely dissolved
